Assay results taken from US9856220B2 (AbbVie Deutschland GmbH & Co. KG, priority 2011, dated 2018).

Key:
PDE10A = PDE10A (Homo sapiens (Human), UniProt Q9Y233); test: Measurement of PDE activity (recombinant PDE, cAMP HTRF); type: biochemical; conditions: 20 nM cyclic nucleotide substrate, 60 minutes at 29 C
In short: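 Recombinant human PDE10A in 20 mM Tris-HCl pH 7.5, 10 mM MgCl2, 0.1% BSA with 20 nM cyclic nucleotide substrate; reaction 60 min at 29 C after compound preincubation with enzyme. Residual cAMP detected by HTRF (cAMP-d2/anti-cAMP cryptate); IC50 from inhibitor concentration versus PDE activity.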

[1] = Determination of the microsomal half-life / microsomal clearance, rat liver microsomes; type: in vitro ADME; conditions: 0.5 μM test substance, 0.25 mg of microsomal protein/ml, pH 7.4, 37° C.
Experimental: (§1) b) Determination of the Microsomal Half-Life:
(§2) The metabolic stability of the compounds of the invention was determined in the following assay.
(§3) The test substances were incubated in a concentration of 0.5 μM as follows:
(§4) 0.5 μM test substance are preincubated together with liver microsomes from different species (from rat, human or other species) (0.25 mg of microsomal protein/ml) in 0.05 M potassium phosphate buffer of pH 7.4 in microtiter plates at 37° C. for 5 min. The reaction is started by adding NADPH (1 mg/mL). After 0, 5, 10, 15, 20 and 30 min, 50 μl aliquots are removed, and the reaction is immediately stopped and cooled with the same volume of acetonitrile. The samples are frozen until analyzed. The remaining concentration of undegraded test substance is determined by MSMS. The half-life (T½) is determined from the gradient of the signal of test substance/unit time plot, it being possible to calculate the half-life of the test substance, assuming first order kinetics, from the decrease in the concentration of the compound with time. The microsomal clearance (mCl) is calculated from mCl=ln 2/T½/(content of microsomal protein in mg/ml)×1000 [ml/min/mg]

[2] = Determination of the microsomal half-life / microsomal clearance, human liver microsomes; type: in vitro ADME; conditions: 0.5 μM test substance, 0.25 mg of microsomal protein/ml, pH 7.4, 37° C.
Experimental: as §1, §2, §3, §4

PDE10A, sequence (Q9Y233 whole entry, species assumed): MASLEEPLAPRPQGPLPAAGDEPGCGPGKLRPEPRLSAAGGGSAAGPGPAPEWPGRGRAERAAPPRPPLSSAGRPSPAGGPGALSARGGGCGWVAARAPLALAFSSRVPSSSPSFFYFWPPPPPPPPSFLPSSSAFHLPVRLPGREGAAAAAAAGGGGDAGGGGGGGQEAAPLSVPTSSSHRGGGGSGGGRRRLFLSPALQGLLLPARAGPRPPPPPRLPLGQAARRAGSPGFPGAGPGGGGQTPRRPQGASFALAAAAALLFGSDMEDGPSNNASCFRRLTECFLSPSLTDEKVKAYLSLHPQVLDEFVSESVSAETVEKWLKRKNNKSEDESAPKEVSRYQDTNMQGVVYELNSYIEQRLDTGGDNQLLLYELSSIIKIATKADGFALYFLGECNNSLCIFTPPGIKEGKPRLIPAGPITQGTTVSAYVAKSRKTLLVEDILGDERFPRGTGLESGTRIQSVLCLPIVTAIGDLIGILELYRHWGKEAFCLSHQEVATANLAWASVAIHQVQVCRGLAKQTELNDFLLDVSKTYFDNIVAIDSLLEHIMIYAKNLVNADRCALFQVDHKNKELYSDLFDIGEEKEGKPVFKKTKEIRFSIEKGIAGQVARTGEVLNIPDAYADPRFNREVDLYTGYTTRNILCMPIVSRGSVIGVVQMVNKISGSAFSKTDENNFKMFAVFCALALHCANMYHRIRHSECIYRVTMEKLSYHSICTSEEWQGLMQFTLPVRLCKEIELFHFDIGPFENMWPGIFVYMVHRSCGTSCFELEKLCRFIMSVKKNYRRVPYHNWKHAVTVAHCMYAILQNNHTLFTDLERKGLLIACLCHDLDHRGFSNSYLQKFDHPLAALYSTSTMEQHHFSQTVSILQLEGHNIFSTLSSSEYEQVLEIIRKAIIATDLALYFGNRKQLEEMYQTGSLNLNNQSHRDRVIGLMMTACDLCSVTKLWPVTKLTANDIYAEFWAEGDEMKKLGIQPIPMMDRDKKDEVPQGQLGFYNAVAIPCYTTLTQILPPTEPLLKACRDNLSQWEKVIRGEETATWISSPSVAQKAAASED

| SMILES | IC50 (PDE10A) | Rat mCl [1] | Human mCl [2] |
| --- | --- | --- | --- |
| CCn1cc(C(=O)NC2CCc3ccc(F)cc32)c2cc(OC)c(OC)cc2c1=O (stereo not drawn) [Example 171, 2-Ethyl-N-(6-fluoro-2,3-dihydro-1H-inden-1-yl)-6,7-dimethoxy-1-oxo-1,2-dihydroisoquinoline-4-carboxamide] | 200 to 500 nM | ++ (<100 μl min^−1 mg^−1) | ++ (<100 μl min^−1 mg^−1) |
| CCC(CC)n1cc(C(=O)NCC2CCCCC2)c2cc(OC)c(OC)cc2c1=O [Example 190, 2-(1-Ethyl-propyl)-6,7-dimethoxy-1-oxo-1,2-dihydro-isoquinoline-4-carboxylic acid cyclohexylmethyl-amide] | 100 to 200 nM | + (100-220 μl min^−1 mg^−1) | ∘ (>220 μl min^−1 mg^−1) |
| COc1cc2c(C(=O)NC3CCc4ccccc43)cn(C(C)C)c(=O)c2cc1OC (stereo not drawn) [Example 198, 2-Isopropyl-6,7-dimethoxy-1-oxo-1,2-dihydro-isoquinoline-4-carboxylic acid indan-1-ylamide] | 200 to 500 nM | ++ (<100 μl min^−1 mg^−1) | + (100-220 μl min^−1 mg^−1) |
| CCC(CC)n1cc(C(=O)NCc2nncs2)c2cc(OC)c(OC)cc2c1=O [Example 201, 2-(1-Ethyl-propyl)-6,7-dimethoxy-1-oxo-1,2-dihydro-isoquinoline-4-carboxylic acid ([1,3,4]thiadiazol-2-ylmethyl)-amide] | 200 to 500 nM | ++ (<100 μl min^−1 mg^−1) | ++ (<100 μl min^−1 mg^−1) |
| CCC(CC)n1cc(C(=O)NCc2c(C)noc2C)c2cc(OC)c(OC)cc2c1=O [Example 238, N-((3,5-Dimethylisoxazol-4-yl)methyl)-6,7-dimethoxy-1-oxo-2-(pentan-3-yl)-1,2-dihydroisoquinoline-4-carboxamide] | 100 to 200 nM | + (100-220 μl min^−1 mg^−1) | ++ (<100 μl min^−1 mg^−1) |
| CCC(CC)n1cc(C(=O)NCc2ncc(C)s2)c2cc(OC)c(OC)cc2c1=O [Example 239, 6,7-Dimethoxy-N-((5-methylthiazol-2-yl)methyl)-1-oxo-2-(pentan-3-yl)-1,2-dihydroisoquinoline-4-carboxamide] | 100 to 200 nM | + (100-220 μl min^−1 mg^−1) | + (100-220 μl min^−1 mg^−1) |
| CCC(CC)n1cc(C(=O)NCc2cc(C)no2)c2cc(OC)c(OC)cc2c1=O [Example 241, 6,7-Dimethoxy-N-((3-methylisoxazol-5-yl)methyl)-1-oxo-2-(pentan-3-yl)-1,2-dihydroisoquinoline-4-carboxamide] | 100 to 200 nM | + (100-220 μl min^−1 mg^−1) | ++ (<100 μl min^−1 mg^−1) |
| CCC(CC)n1cc(C(=O)NCc2cc(C)on2)c2cc(OC)c(OC)cc2c1=O [Example 244, 6,7-Dimethoxy-N-((5-methylisoxazol-3-yl)methyl)-1-oxo-2-(pentan-3-yl)-1,2-dihydroisoquinoline-4-carboxamide] | 200 to 500 nM | ++ (<100 μl min^−1 mg^−1) | ++ (<100 μl min^−1 mg^−1) |
| CCC(CC)n1cc(C(=O)N[C@@H](C)c2ccc(F)cc2)c2cc(OC)c(OC)cc2c1=O [Example 246, (S)—N-(1-(4-fluorophenyl)ethyl)-6,7-dimethoxy-1-oxo-2-(pentan-3-yl)-1,2-dihydroisoquinoline-4-carboxamide] | 100 to 200 nM | + (100-220 μl min^−1 mg^−1) | ∘ (>220 μl min^−1 mg^−1) |
| CCC(CC)n1cc(C(=O)NCc2nc(C)cs2)c2cc(OC)c(OC)cc2c1=O [Example 247, 6,7-Dimethoxy-N-((4-methylthiazol-2-yl)methyl)-1-oxo-2-(pentan-3-yl)-1,2-dihydroisoquinoline-4-carboxamide] | 100 to 200 nM | ++ (<100 μl min^−1 mg^−1) | + (100-220 μl min^−1 mg^−1) |
| CCC(CC)n1cc(C(=O)NCc2csc(C)n2)c2cc(OC)c(OC)cc2c1=O [Example 248, 6,7-Dimethoxy-N-((2-methylthiazol-4-yl)methyl)-1-oxo-2-(pentan-3-yl)-1,2-dihydroisoquinoline-4-carboxamide] | 100 to 200 nM | ++ (<100 μl min^−1 mg^−1) | + (100-220 μl min^−1 mg^−1) |
| CCC(CC)n1cc(C(=O)NCc2ccc(C)o2)c2cc(OC)c(OC)cc2c1=O [Example 251, 6,7-Dimethoxy-N-((5-methylfuran-2-yl)methyl)-1-oxo-2-(pentan-3-yl)-1,2-dihydroisoquinoline-4-carboxamide] | 100 to 200 nM | ∘ (>220 μl min^−1 mg^−1) | + (100-220 μl min^−1 mg^−1) |
| CCC(CC)n1cc(C(=O)NCc2ccccn2)c2cc(OC)c(OC)cc2c1=O [Example 263, 6,7-Dimethoxy-1-oxo-2-(pentan-3-yl)-N-(pyridin-2-ylmethyl)-1,2-dihydroisoquinoline-4-carboxamide] | 100 to 200 nM | ++ (<100 μl min^−1 mg^−1) | ++ (<100 μl min^−1 mg^−1) |

Second part, the molecule after the results:

| IC50 (PDE10A) | Rat mCl [1] | Human mCl [2] | SMILES |
| --- | --- | --- | --- |
| 100 to 200 nM | ++ (<100 μl min^−1 mg^−1) | ++ (<100 μl min^−1 mg^−1) | CCn1cc(C(=O)NC2CCc3sccc32)c2cc(OC)c(OC)cc2c1=O (stereo not drawn) [Example 172, N-(5,6-Dihydro-4H-cyclopenta[b]thiophen-4-yl)-2-ethyl-6,7-dimethoxy-1-oxo-1,2-dihydroisoquinoline-4-carboxamide] |
| 100 to 200 nM | ++ (<100 μl min^−1 mg^−1) | ++ (<100 μl min^−1 mg^−1) | CCC(CC)n1cc(C(=O)NC2CCc3ncccc32)c2cc(OC)c(OC)cc2c1=O (stereo not drawn) [Example 186, 2-(1-Ethyl-propyl)-6,7-dimethoxy-1-oxo-1,2-dihydro-isoquinoline-4-carboxylic acid (6,7-dihydro-5H-[1]pyrindin-5-yl)-amide] |
| < 100 nM | + (100-220 μl min^−1 mg^−1) | ∘ (>220 μl min^−1 mg^−1) | CCC(CC)n1cc(C(=O)N[C@H]2CCc3ccccc32)c2cc(OC)c(OC)cc2c1=O [Example 192, 2-(1-Ethyl-propyl)-6,7-dimethoxy-1-oxo-1,2-dihydro-isoquinoline-4-carboxylic acid (S)-indan-1-ylamide] |
| 100 to 200 nM | + (100-220 μl min^−1 mg^−1) | + (100-220 μl min^−1 mg^−1) | CCC(CC)n1cc(C(=O)NC2CC(=O)c3sccc32)c2cc(OC)c(OC)cc2c1=O (stereo not drawn) [Example 195, 2-(1-Ethyl-propyl)-6,7-dimethoxy-1-oxo-1,2-dihydro-isoquinoline-4-carboxylic acid (6-oxo-5,6-dihydro-4H-cyclopenta[b]thiophen-4-yl)-amide] |
| 100 to 200 nM | + (100-220 μl min^−1 mg^−1) | ∘ (>220 μl min^−1 mg^−1) | CCC(C)n1cc(C(=O)NC2CCc3ccccc32)c2cc(OC)c(OC)cc2c1=O (stereo not drawn) [Example 197, 2-sec-Butyl-6,7-dimethoxy-1-oxo-1,2-dihydro-isoquinoline-4-carboxylic acid indan-1-ylamide] |
| < 100 nM | + (100-220 μl min^−1 mg^−1) | ∘ (>220 μl min^−1 mg^−1) | CCC(CC)n1cc(C(=O)NCc2ccccc2S(=O)(=O)N2CCOCC2)c2cc(OC)c(OC)cc2c1=O [Example 202, 2-(1-Ethyl-propyl)-6,7-dimethoxy-1-oxo-1,2-dihydro-isoquinoline-4-carboxylic acid 2-(morpholine-4-sulfonyl)-benzylamide] |
| < 100 nM | + (100-220 μl min^−1 mg^−1) | + (100-220 μl min^−1 mg^−1) | CCC(CC)n1cc(C(=O)NCc2ccccc2S(=O)(=O)N2CCN(C)CC2)c2cc(OC)c(OC)cc2c1=O [Example 219, 2-(1-Ethyl-propyl)-6,7-dimethoxy-1-oxo-1,2-dihydro-isoquinoline-4-carboxylic acid 2-(4-methyl-piperazine-1-sulfonyl)-benzylamide] |
| 100 to 200 nM | ++ (<100 μl min^−1 mg^−1) | ++ (<100 μl min^−1 mg^−1) | CCC(CC)n1cc(C(=O)NCc2nccs2)c2cc(OC)c(OC)cc2c1=O [Example 228, 2-(1-Ethyl-propyl)-6,7-dimethoxy-1-oxo-1,2-dihydro-isoquinoline-4-carboxylic acid (thiazol-2-ylmethyl)-amide] |
| 100 to 200 nM | ++ (<100 μl min^−1 mg^−1) | + (100-220 μl min^−1 mg^−1) | CCC(CC)n1cc(C(=O)NCc2cccnc2)c2cc(OC)c(OC)cc2c1=O [Example 236, 6,7-Dimethoxy-1-oxo-2-(pentan-3-yl)-N-(pyridin-3-ylmethyl)-1,2-dihydroisoquinoline-4-carboxamide] |
| < 100 nM | + (100-220 μl min^−1 mg^−1) | ∘ (>220 μl min^−1 mg^−1) | CCC(CC)n1cc(C(=O)NC2CCc3ccc(OC)cc32)c2cc(OC)c(OC)cc2c1=O (stereo not drawn) [Example 256, 6,7-Dimethoxy-N-(6-methoxy-2,3-dihydro-1H-inden-1-yl)-1-oxo-2-(pentan-3-yl)-1,2-dihydroisoquinoline-4-carboxamide] |
